Test results taken from ChEMBL document CHEMBL5356970, “Syntheses of the ω-pyridinium-containing very-long-chain ceramides PyrCer(24:1(15Z)) and PyrCer(24:0) and their anticancer activity” (Bioorg Med Chem Lett, 2024).

Test system: HepG2
Test: Anticancer activity against human HepG2 cells assessed as reduction in cell survival
Assay type: functional, cell-based

Compared with CCCCCCCCCCCCC/C=C/[C@@H](O)[C@H](CO)NC(=O)CCCCCCCCCCCCC/C=C\CCCCCCCC[n+]1ccccc1, CCCCCCCCCCCCC/C=C/[C@@H](O)[C@H](CO)NC(=O)CCCCCCCCCCCCCCCCCCCCCCC[n+]1ccccc1 is 9.9-fold higher in IC50: 1 µM for the first, 9.9 µM for the second. The first is the more potent here.

First: CCCCCCCCCCCCC/C=C/[C@@H](O)[C@H](CO)NC(=O)CCCCCCCCCCCCCCCCCCCCCCC
Second: CCCCCCCC/C=C\CCCCCCCCCCCCCC(=O)N[C@@H](CO)[C@H](O)/C=C/CCCCCCCCCCCCC
The IC50 of the first is lower: 189 µM for the first, greater than 200 µM for the second.
